ChEMBL document CHEMBL1157212, “Classification of estrogen receptor-beta ligands on the basis of their binding affinities using support vector machine and linear discriminant analysis” (Eur J Med Chem, 2008)

Target: Estrogen receptor beta (Homo sapiens, UniProt Q92731)
Sequence (Q92731 whole entry): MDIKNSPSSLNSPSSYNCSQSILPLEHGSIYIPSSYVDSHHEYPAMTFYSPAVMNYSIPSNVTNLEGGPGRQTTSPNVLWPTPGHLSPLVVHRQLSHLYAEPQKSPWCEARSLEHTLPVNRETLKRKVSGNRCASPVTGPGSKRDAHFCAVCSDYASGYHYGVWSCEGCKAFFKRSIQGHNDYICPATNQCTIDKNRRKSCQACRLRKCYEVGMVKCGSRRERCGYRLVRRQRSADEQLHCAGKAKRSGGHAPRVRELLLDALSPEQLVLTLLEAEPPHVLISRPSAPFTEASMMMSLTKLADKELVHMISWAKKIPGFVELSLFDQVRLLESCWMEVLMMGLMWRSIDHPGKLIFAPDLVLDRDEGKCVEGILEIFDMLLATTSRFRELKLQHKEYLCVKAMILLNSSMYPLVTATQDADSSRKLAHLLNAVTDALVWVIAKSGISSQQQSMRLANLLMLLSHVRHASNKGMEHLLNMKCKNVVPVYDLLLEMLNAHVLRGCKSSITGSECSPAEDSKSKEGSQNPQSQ
Description: Binding affinity to ERbeta

Structure (SMILES)	IC50 [nM]
O=C(O)c1cc(O)cc2nc(-c3ccc(O)cc3)oc12	5000
C/C=C/c1cc(O)cc2nc(-c3ccc(O)cc3)oc12	142
Oc1ccc(-c2nc3cc(O)cc(Br)c3o2)c(C(F)(F)F)c1	1.4
